From patent publication US20180049996A1, “THERAPEUTIC AGENT FOR CHRONIC RESPIRATORY DISEASE AND COMPOSITION FOR INHIBITING CARDIAC FIBROSIS” (NIPPON HYPOX LABORATORIES INCORPORATED, priority 2015, published 2018)

How the values were obtained:
[1] = test system: Pulmonary Fibrosis Induced by Bleomycin; test: Gross pathology of lungs, pulmonary fibrosis induced by bleomycin; format: in vivo, male SD rats; conditions: test groups 2 and 3: bleomycin 7.5 mg/kg + HTHQ 50 or 200 mg/kg/day oral; day 20
Method: (§1) Bleomycin is used to produce disease-model animals of interstitial pneumonia. The bleomycin and 2,3,5-trimethylhydroquinone-1-hexyl ether (HTHQ) as the hydroquinone derivative represented by the general formula (1) described above of the present invention were simultaneously administered to male SD rats of 10 week old after birth to examine the effect of the action. The test groups consisted of the control group to which sterile saline was administered; test group 1 to which bleomycin (7.5 mg/kg body weight) alone was administered; test group 2 to which bleomycin (7.5 mg/kg body weight) and HTHQ (50 mg/kg body weight/day) were administered in combination; and test group 3 to which bleomycin (7.5 mg/kg body weight) and HTHQ (200 mg/kg body weight/day) were administered in combination.
In test groups 1 to 3, bleomycin was orally administered in a single dose. In test groups 2 and 3, 2,3,5-trimethylhydroquinone-1-hexyl ether (HTHQ) was daily orally administered for 10 or 20 days starting from 24 h after the administration of bleomycin. In test group 1, olive oil, which was used as a solvent of HTHQ, was daily orally administered at 10 mL/kg/day starting from 24 h after the administration of bleomycin. The number of animals in each group was 16. […]

[2] = test system: Pulmonary Fibrosis Induced by Bleomycin; test: Body weight and relative weight of lungs, pulmonary fibrosis induced by bleomycin; format: in vivo, male SD rats; conditions: test groups 2 and 3: bleomycin 7.5 mg/kg + HTHQ 50 or 200 mg/kg/day oral; day 20; compared to bleomycin-single group, p<0.05
Method: as §1
In test groups 1 to 3, bleomycin was orally administered in a single dose. In test groups 2 and 3, 2,3,5-trimethylhydroquinone-1-hexyl ether (HTHQ) was daily orally administered for 10 or 20 days starting from 24 h after the administration of bleomycin. In test group 1, olive oil, which was used as a solvent of HTHQ, was daily orally administered at 10 mL/kg/day starting from 24 h after the administration of bleomycin. The number of animals in each group was 16. 8 animals of each group were sacrificed on days 10 and 20 after the administration of bleomycin and measurement of body weight, lung autopsy, histopathologic examination of lungs and bronchoalveolar lavage examination were conducted.
The body weight of the rats in the control group increased over time during the test period. […] The weight of the interstitial tissue of lungs tends to increase and the relative weight of lungs tends to rise when the tissue fibroses. […] Thus, it was expected that the degree of the progression of pulmonary fibrosis of the rats in test groups 2 and 3, to which HTHQ was administered, was less than the rats in test group 1.

CCCCCCOc1cc(C)c(O)c(C)c1C [HTHQ, 2,3,5-trimethylhydroquinone-1-hexyl ether]
gross pathology of lungs (lesions) [1]: alleviated
relative weight of lungs [2]: significantly low
